Assay results published in patent publication US20080241904A1, “PROCESS FOR PRODUCING ISOMALTOSE AND USES THEREOF” (KABUSHIKI KAISHA HAYASHIBARA SEIBUTSU KAGAKU KENKYUJO, priority 2001, published 2008).

What was measured:
[1] = tested on: α-isomaltosylglucosaccharide-forming enzyme; assay: Influence of metal ions on activity of α-isomaltosylglucosaccharide-forming enzyme (Strain C9); type: biochemical, Bacillus globisporus C9; conditions: for Effect on enzyme activity (in words): 1 mM, summary of Table 2; for Relative activity: in the presence of 1 mM of each metal ion, None = 100
Experimental: The activities of these enzymes were assayed as follows: The α-isomaltosylglucosaccharide-forming enzyme of the present invention was assayed for enzymatic activity by dissolving maltotriose in 100 mM acetate buffer (pH 6.0) to give a concentration of 2% (w/v) for a substrate solution, adding a 0.5 ml of an enzyme solution to a 0.5 ml of the substrate solution, enzymatically reacting the mixture solution at 35° C. for 60 min, suspending the reaction mixture by heating at 100° C. for 10 min, and quantifying maltose, among the isomaltosyl maltose and maltose formed in the reaction mixture, by high-performance liquid chromatography (abbreviated as “HPLC” hereinafter). HPLC was carried out using “YMC PACK ODS-AQ303 column” commercialized by YMC Co., Ltd., Tokyo, Japan, at a column temperature of 40° C. and a flow rate of 0.5 ml/min of water; and using “RI-8012”, a differential refractometer commercialized by Tosoh Corporation, Tokyo, Japan. One unit activity of the α-isomaltosylglucosaccharide-forming enzyme is defined as the enzyme amount that forms one micromole of maltose per minute under the above enzymatic reaction conditions.
The influence of metal ions on the activity of α-isomaltosylglucosaccharide-forming enzyme was examined in the presence of 1 mM of each metal-ion according to the assay for the enzyme activity.

[2] = tested on: α-isomaltosyl-transferring enzyme; assay: Influence of metal ions on activity of α-isomaltosyl-transferring enzyme (Strain C9); type: biochemical, Bacillus globisporus C9; conditions: for Relative activity: in the presence of 1 mM of each metal ion, None = 100
Experimental: (§1) The α-isomaltosyl-transferring enzyme was assayed for enzymatic activity by dissolving panose in 100 mM acetate buffer (pH 6.0) to give a concentration of 2% (w/v) for a substrate solution, adding a 0.5 ml of an enzyme solution to 0.5 ml of the substrate solution, enzymatically reacting the mixture solution at 35° C. for 30 min, suspending the reaction mixture by boiling for 10 min, and quantifying glucose, among the cyclotetrasaccharide and glucose formed in the reaction mixture, by the glucose oxidase method. One unit activity of the α-isomaltosyl-transferring enzyme is defined as the enzyme amount that forms one micromole of glucose per minute under the above enzymatic reaction conditions.
(§2) The influence of metal ions on the activity of α-isomaltosyl-transferring enzyme was examined in the presence of 1 mM of each metal-ion according to the assay for the enzyme activity.

[3] = tested on: α-isomaltosylglucosaccharide-forming enzyme; assay: Influence of metal ions on enzyme activity, Experiment 4-2 (Strain C11); type: biochemical, Bacillus globisporus C11; conditions: for Effect on enzyme activity (in words): 1 mM, summary of Table 6; for Relative activity: in the presence of 1 mM of each metal ion, None = 100
[4] = tested on: α-isomaltosyl-transferring enzyme; assay: Influence of metal ions on activity of α-isomaltosyl-transferring enzyme (Strain C11); type: biochemical, Bacillus globisporus C11; conditions: for Relative activity: in the presence of 1 mM of each metal ion, None = 100
Experimental: as §1, §2

With `[Sr+2]` [Sr^2+] the “Effect on enzyme activity (in words)” value [1] was “inhibited”, the Relative activity [1] was 80% and the Relative activity [2] was 101%. The “Effect on enzyme activity (in words)” value [3] was “inhibited”, the Relative activity [3] was 83% and the Relative activity [4] was 93%.

`O=C(O)CN(CCN(CC(=O)O)CC(=O)O)CC(=O)O` [EDTA] was tested, and the “Effect on enzyme activity (in words)” value [1] was “greatly inhibited”, the Relative activity [1] was 20% and the “Effect on enzyme activity (in words)” value ([2]; 1 mM, summary of Table 4) was “not inhibited”. The Relative activity [2] was 104%, the “Effect on enzyme activity (in words)” value [3] was “greatly inhibited” and the Relative activity [3] was 24%. For the same molecule, the “Effect on enzyme activity (in words)” value ([4]; 1 mM, summary of Table 8) was “not inhibited” and the Relative activity [4] was 98%.

With `[Ba+2]` [Ba^2+] the “Effect on enzyme activity (in words)” value [1] was “inhibited”, the Relative activity [1] was 65% and the Relative activity [2] was 102%. The “Effect on enzyme activity (in words)” value [3] was “inhibited”, the Relative activity [3] was 65% and the Relative activity [4] was 90%.
